According to article PMC11514443 (Structure (London, England : 1993), 2019):
Square brackets hold non-standard residues; d marks the D form. Ends that are not written are not given here. Peptide text beside a SMILES is read from it. Lys(Me3) = C[N+](C)(C)CCCC[C@H](N)C(=O)O

Tests used:
[1] = biological target: CW domain of human MORC3 (aa 401-455) (human) (UniProt Q14149); experiment: other fluorescence titration
MORC3-CW [2] = biological target: T1, MORC3-CW (Homo sapiens, UniProt Q14149); type: binding
MORC3-CW [3] = biological target: T1, MORC3-CW; type: binding; details: pH 6.8
MORC3-CW E431A mutant [4] = biological target: MORC3-CW E431A mutant (Homo sapiens, UniProt Q14149, E431A); details: NMR and fluorescence
[5] = test system: CW domain with W410 mutated to alanine; experiment: binding to MORC3-CW W410A mutant
[6] = test system: CW domain with W419 mutated to alanine; experiment: binding to MORC3-CW W419A mutant
[7] = biological target: MORC3 ATPase domain ATPase (Homo sapiens) (UniProt Q14149); details: cited from earlier work
MORC3-CW E431A mutant [8] = biological target: T2, MORC3-CW E431A mutant (human, UniProt Q14149 401-455, E431A); experiment: other fluorescence titration
T2 sequence (looked up): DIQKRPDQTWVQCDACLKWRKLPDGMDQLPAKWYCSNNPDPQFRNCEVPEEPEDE

T1 sequence (Q14149 401-455): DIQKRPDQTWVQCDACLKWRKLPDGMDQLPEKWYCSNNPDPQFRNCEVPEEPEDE
Sequence of MORC3 ATPase domain ATPase (Homo sapiens) (Q14149 1-400): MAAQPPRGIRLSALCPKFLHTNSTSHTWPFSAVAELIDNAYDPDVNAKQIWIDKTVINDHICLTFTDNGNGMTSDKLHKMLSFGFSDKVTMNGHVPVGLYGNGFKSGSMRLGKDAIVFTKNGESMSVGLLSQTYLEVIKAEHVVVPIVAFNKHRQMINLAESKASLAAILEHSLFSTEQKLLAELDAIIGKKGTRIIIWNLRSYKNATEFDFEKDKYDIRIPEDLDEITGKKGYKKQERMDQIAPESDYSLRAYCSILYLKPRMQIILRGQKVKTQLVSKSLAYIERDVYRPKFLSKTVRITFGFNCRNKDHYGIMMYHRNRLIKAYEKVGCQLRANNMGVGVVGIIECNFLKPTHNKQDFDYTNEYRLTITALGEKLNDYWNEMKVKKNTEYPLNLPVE

## NS1 peptide trimethylated at K229 (residues 222-230 of NS1)
[1]
  Kd: 14 µM

## unmodified NS1 peptide (residues 222-230 of NS1)
[1]
  Kd: 157 µM

## CSCC[C@H](N)C(=O)N[C@@H](C)C(=O)N[C@@H](CCCNC(=N)N)C(=O)N[C@H](C(=O)N[C@@H](C)C(=O)N[C@@H](CCCNC(=N)N)C(=O)N[C@@H](CO)C(=O)N[C@@H](CCCC[N+](C)(C)C)C(=O)N[C@H](C(=O)O)C(C)C)[C@@H](C)O [NS1K229me3] (H-MARTARS[Lys(Me3)]V-OH; N-terminus and C-terminus assumed)
MORC3-CW [2]
  fold increase in binding affinity vs unmodified NS1 peptide: ~ 11 fold
MORC3-CW [3]
  chemical shift perturbations (CSPs) in MORC3-CW: large chemical shift perturbations (CSPs)
MORC3-CW E431A mutant [4]
  binding to E431A mutant: capable of binding
[5]
  binding to W410A mutant: abrogated binding
[6]
  binding to W419A mutant: abrogated binding

## MORC3 CW (from UniProt Q14149)
[7]
  Kd: 9 µM

B1: histone H3 peptide trimethylated at lysine 4 (residues 1-12) (peptide, UniProt P68431 2-13, looked up)
peptide: ARTK(Me3)QTARKSTG
MORC3-CW E431A mutant [8]
  Kd: 0.6 µM
